Key:
MPS1 = MPS1 (Homo sapiens (Human), UniProt P33981); experiment: Biochemical trans-phosphorylation (Dowex, 33P-γ-ATP) assay for inhibitors of MPS1 kinase activity; details: MPS1 5 nM, 15 microM ATP, P38-βtide 200 microM
Source text: Cloning, Expression and Purification of Recombinant MPS1 Full Length Protein.
MPS1 full length (corresponding to residues 2-857 of the full length sequence, see Swiss-Prot accession number P33981) was PCR amplified from the full-length human MPS1 gene present in house as clone pGEX4t_MPS1.
Baculoviruses were generated by cotransfecting Sf9 insect cells with the expression vector and the viral DNA using the BaculoGold® transfection kit (Pharmingen). Viral supernatant was recovered after 5 days and subjected to 3 rounds of amplification to increase viral titer. Recombinant protein was produced by infecting High5 insect cells. After 72 hours of infection at 21° C., cells were recovered, pelletted and freezed at −80° C. For purification of recombinant protein, pellet was thawed, resuspended in lysis buffer (PBS, NaCl 150 mM, Glycerol 10%, CHAPS 0.1%, DTT 20 mM, protease and phosphatase inhibitors) and lysed by Gaulin. Lysate was cleared by centrifugation and loaded on a GST affinity column. After extensive wash, recombinant protein was cleaved by a specific protease and eluted by incubation.
To get a fully activated enzyme, the protein was then subjected to auto-phosphorylation in presence of ATP 1 mM at 25° C. for 2 hours in kinase buffer (Hepes pH7.5 50 mM, MgCl2 2.5 mM, MnCl2 1 mM, DTT 1 mM, phosphatase inhibitors); ATP was then removed whit a desalting column.
(§1) Biochemical Assay for Inhibitors of MPS1 and PERK Kinase Activity
(§2) The inhibitory activity of putative kinase inhibitors and the potency of selected compounds were determined using a trans-phosphorylation assay.
Specific peptide or protein substrates are trans-phosphorylated by their specific ser-thr or tyr kinase in the presence of ATP traced with ^33P-γ-ATP, and in the presence of their own optimal buffer and cofactors. […]
Supernatant is subsequently withdrawn and transferred into a counting plate, then evaluated by β-counting. […]

PERK = PERK (Homo sapiens (Human), UniProt Q9NZJ5); experiment: Biochemical trans-phosphorylation (Dowex, 33P-γ-ATP) assay for inhibitors of PERK kinase activity; details: PERK 8 nM, 52 microM ATP, eIF2alfa-tide 300 microM
Procedure: Cloning, Expression and Purification of Recombinant PERK Cytoplasmic Domain Protein.
PERK cytoplasmic domain (corresponding to residues 540-1115; Swiss-Prot accession number Q9NZJ5) was PCR amplified using the following forward oligonucleotide:
Recombinant protein was produced in BL21(DE3)pLysS strain, in auto-induction medium, at 21° C. for 24 hours (see F. W. Studier, “Protein production by auto-induction in high density shaking cultures”, Protein Expression and Purification (2005) vol. 41:207-234). The cells were recovered by centrifugation, and the pellet frozen at −80° C. For purification of recombinant protein, pellet was thawed, resuspended in lysis buffer (Tris-HCl 50 mM pH 7.6, NaCl 250 mM, Glycerol 10%, CHAPS 0.2%, Imidazole 5 mM, protease and phosphatase inhibitors) and lysed by Gaulin homogenizer. Lysate was cleared by centrifugation and loaded on a Ni-NTA and the eluate on a GST affinity column. After extensive wash, recombinant protein was cleaved by a specific protease and eluted. Recombinant PERK cytoplasmic domain obtained by this protocol was >85% pure by coomassie stained SDS-PAGE.
as §1, §2
Specific peptide or protein substrates are trans-phosphorylated by their specific ser-thr or tyr kinase in the presence of ATP traced with ^33P-γ-ATP, and in the presence of their own optimal buffer and cofactors.
At the end of the phosphorylation reaction, more than 98% unlabeled ATP and radioactive ATP is captured by an excess of the ion exchange dowex resin; the resin then settles down to the bottom of the reaction plate by gravity.
Supernatant is subsequently withdrawn and transferred into a counting plate, then evaluated by β-counting.
The buffer for PERK assay was composed of HEPES 50 mM, at pH 7.5 with 3 mM MgCl2, 1 mM DTT, 3 microM Na3VO4, and 0.2 mg/mL BSA […]

Sequence of MPS1 (P33981 2-857): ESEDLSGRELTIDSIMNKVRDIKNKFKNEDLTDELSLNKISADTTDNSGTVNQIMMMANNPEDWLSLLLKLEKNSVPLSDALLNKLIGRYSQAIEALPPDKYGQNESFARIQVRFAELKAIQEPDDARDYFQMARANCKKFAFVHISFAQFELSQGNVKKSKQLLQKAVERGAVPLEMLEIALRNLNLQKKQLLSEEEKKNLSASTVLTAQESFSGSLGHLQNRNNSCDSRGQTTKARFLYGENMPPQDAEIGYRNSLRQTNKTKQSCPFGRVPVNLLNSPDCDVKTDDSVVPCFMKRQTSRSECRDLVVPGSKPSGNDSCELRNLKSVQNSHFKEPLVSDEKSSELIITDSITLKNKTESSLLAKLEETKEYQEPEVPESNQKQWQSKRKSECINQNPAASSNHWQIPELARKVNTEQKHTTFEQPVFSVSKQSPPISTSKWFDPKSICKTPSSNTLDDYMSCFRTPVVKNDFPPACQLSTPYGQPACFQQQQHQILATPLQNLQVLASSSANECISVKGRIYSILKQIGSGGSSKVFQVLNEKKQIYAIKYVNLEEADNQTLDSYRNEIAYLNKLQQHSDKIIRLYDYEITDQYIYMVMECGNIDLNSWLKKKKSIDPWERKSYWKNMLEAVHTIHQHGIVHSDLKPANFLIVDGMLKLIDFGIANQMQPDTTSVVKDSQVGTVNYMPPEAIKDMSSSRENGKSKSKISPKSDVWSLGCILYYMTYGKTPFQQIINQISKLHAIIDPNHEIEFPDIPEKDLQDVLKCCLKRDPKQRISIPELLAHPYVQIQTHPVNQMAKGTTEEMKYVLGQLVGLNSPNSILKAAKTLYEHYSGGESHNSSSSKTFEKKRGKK
Sequence of PERK (Q9NZJ5 540-1115): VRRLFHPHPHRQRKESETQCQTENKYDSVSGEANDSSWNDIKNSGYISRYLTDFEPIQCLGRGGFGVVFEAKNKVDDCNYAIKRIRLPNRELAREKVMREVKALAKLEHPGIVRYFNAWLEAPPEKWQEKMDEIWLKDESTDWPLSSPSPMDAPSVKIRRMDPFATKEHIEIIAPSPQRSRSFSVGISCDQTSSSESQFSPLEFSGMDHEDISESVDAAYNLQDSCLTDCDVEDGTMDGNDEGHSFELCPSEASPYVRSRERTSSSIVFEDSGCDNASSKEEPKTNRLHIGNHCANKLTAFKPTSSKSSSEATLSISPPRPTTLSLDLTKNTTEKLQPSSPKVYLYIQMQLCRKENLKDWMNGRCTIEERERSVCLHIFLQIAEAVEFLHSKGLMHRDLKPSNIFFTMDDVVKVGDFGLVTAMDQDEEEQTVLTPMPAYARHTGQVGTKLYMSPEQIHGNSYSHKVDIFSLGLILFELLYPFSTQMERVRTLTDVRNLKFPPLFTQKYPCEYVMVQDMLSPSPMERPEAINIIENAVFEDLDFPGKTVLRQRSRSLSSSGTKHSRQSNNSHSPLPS

Structure (SMILES) | IC50 (MPS1) | IC50 (PERK)
COc1cc(C(=O)NC2CCN(C)CC2)ccc1Nc1ncc2c(n1)-c1noc(C(N)=O)c1C(C)(C)C2 [Compound 30, 8-({2-methoxy-4-[(1-methylpiperidin-4-yl)carbamoyl]phenyl}amino)-4,4-dimethyl-4,5-dihydroisoxazolo[4,3-h]quinazoline-3-carboxamide] | 680 nM | 400 nM
COc1cc(C(=O)NC2CCN(C)CC2)ccc1Nc1ncc2c(n1)-c1onc(C(=O)N[C@@H](CN)c3ccccc3)c1CC2(C)C [Compound 61, N-[(1R)-2-amino-1-phenylethyl]-8-({2-methoxy-4-[(1-methylpiperidin-4-yl)carbamoyl]phenyl}amino)-5,5-dimethyl-4,5-dihydroisoxazolo[4,5-h]quinazoline-3-carboxamide] | 360 nM | 240 nM
COc1cc(C(=O)NC2CCN(C)CC2)ccc1Nc1ncc2c(n1)-c1onc(C(N)=O)c1CC2(C)C [Compound 55, 8-({2-methoxy-4-[(1-methylpiperidin-4-yl)carbamoyl]phenyl}amino)-5,5-dimethyl-4,5-dihydroisoxazolo[4,5-h]quinazoline-3-carboxamide] | 3440 nM | 510 nM
